Measurements taken from ChEMBL document CHEMBL3596195, “Novel cajaninstilbene acid derivatives as antibacterial agents” (Eur J Med Chem, 2015).
Values after ≈ are worked out from the molar mass of the structure shown.

Tests used:
Type in all cases: functional
Staphylococcus aureus [1] = assay: Antibacterial activity against methicillin-resistant Staphylococcus aureus ATCC510019 assessed as bacterial growth inhibition after 24 hrs by broth dilution method; details: ATCC510019, 24 h
Escherichia coli = assay: Antibacterial activity against Escherichia coli ATCC25922 assessed as bacterial growth inhibition after 24 hrs by broth dilution method; details: ATCC25922, 24 h
Staphylococcus aureus [2] = assay: Antibacterial activity against methicillin-resistant Staphylococcus aureus ATCC43300 assessed as bacterial growth inhibition after 24 hrs by broth dilution method; details: ATCC43300, 24 h
Staphylococcus aureus [3] = assay: Antibacterial activity against Staphylococcus aureus ATCC25923 assessed as bacterial growth inhibition after 24 hrs by broth dilution method; details: ATCC25923, 24 h
Pseudomonas aeruginosa = assay: Antibacterial activity against Pseudomonas aeruginosa ATCC2785 assessed as bacterial growth inhibition after 24 hrs by broth dilution method; details: ATCC2785, 24 h
Staphylococcus aureus [4] = assay: Antibacterial activity against methicillin-resistant Staphylococcus aureus ATCC52056 assessed as bacterial growth inhibition after 24 hrs by broth dilution method; details: ATCC52056, 24 h
Bacillus subtilis = assay: Antibacterial activity against Bacillus subtilis ATCC6633 assessed as bacterial growth inhibition after 24 hrs by broth dilution method; details: ATCC6633, 24 h
Proteus vulgaris = assay: Antibacterial activity against Proteus vulgaris ATCC49101 assessed as bacterial growth inhibition after 24 hrs by broth dilution method; details: ATCC49101, 24 h
Staphylococcus aureus [5] = assay: Antibacterial activity against methicillin-resistant Staphylococcus aureus ATCC523512 assessed as bacterial growth inhibition after 24 hrs by broth dilution method; details: ATCC523512, 24 h
Staphylococcus aureus [6] = assay: Antibacterial activity against methicillin-resistant Staphylococcus aureus ATCC62202 assessed as bacterial growth inhibition after 24 hrs by broth dilution method; details: ATCC62202, 24 h
Staphylococcus aureus [7] = assay: Antibacterial activity against methicillin-resistant Staphylococcus aureus ATCC513045 assessed as bacterial growth inhibition after 24 hrs by broth dilution method; details: ATCC513045, 24 h
Staphylococcus aureus [8] = assay: Antibacterial activity against methicillin-resistant Staphylococcus aureus ATCC515992 assessed as bacterial growth inhibition after 24 hrs by broth dilution method; details: ATCC515992, 24 h
Staphylococcus aureus [9] = assay: Antibacterial activity against methicillin-resistant Staphylococcus aureus ATCC51033 assessed as bacterial growth inhibition after 24 hrs by broth dilution method; details: ATCC51033, 24 h
Staphylococcus aureus [10] = assay: Antibacterial activity against methicillin-resistant Staphylococcus aureus ATCC425055 assessed as bacterial growth inhibition after 24 hrs by broth dilution method; details: ATCC425055, 24 h
[11] = system: Staphylococcus epidermidis; assay: Antibacterial activity against Staphylococcus epidermidis ATCC12228 assessed as bacterial growth inhibition after 24 hrs by broth dilution method; details: ATCC12228, 24 h

COC(=O)c1c(/C=C/c2cccc(C#N)c2)cc(OC)c(CC=C(C)C)c1O
MIC (Staphylococcus aureus [1]): > 128 µg/mL | MIC (Escherichia coli): > 128 µg/mL | MIC (Staphylococcus aureus [2]): > 128 µg/mL | MIC (Staphylococcus aureus [3]): > 128 µg/mL | MIC (Pseudomonas aeruginosa): > 128 µg/mL | MIC (Staphylococcus aureus [4]): > 128 µg/mL | MIC (Bacillus subtilis): > 128 µg/mL | MIC (Proteus vulgaris): > 128 µg/mL | MIC (Staphylococcus aureus [5]): > 128 µg/mL | MIC (Staphylococcus aureus [6]): 128 µg/mL (≈ 339 µM) | MIC (Staphylococcus aureus [7]): > 128 µg/mL | MIC (Staphylococcus aureus [8]): > 128 µg/mL | MIC (Staphylococcus aureus [9]): > 128 µg/mL | MIC (Staphylococcus aureus [10]): > 128 µg/mL | MIC [11]: 128 µg/mL (≈ 339 µM)

COC(=O)c1c(/C=C/c2ccc(C(F)(F)F)cc2)cc(OC)c(CC=C(C)C)c1O
MIC (Staphylococcus aureus [1]): > 128 µg/mL | MIC (Escherichia coli): > 128 µg/mL | MIC (Staphylococcus aureus [2]): > 128 µg/mL | MIC (Staphylococcus aureus [3]): 64 µg/mL (≈ 152 µM) | MIC (Pseudomonas aeruginosa): > 128 µg/mL | MIC (Staphylococcus aureus [4]): 128 µg/mL (≈ 304 µM) | MIC (Bacillus subtilis): 128 µg/mL (≈ 304 µM) | MIC (Proteus vulgaris): > 128 µg/mL | MIC (Staphylococcus aureus [5]): 64 µg/mL (≈ 152 µM) | MIC (Staphylococcus aureus [6]): 128 µg/mL (≈ 304 µM) | MIC (Staphylococcus aureus [7]): 128 µg/mL (≈ 304 µM) | MIC (Staphylococcus aureus [8]): > 128 µg/mL | MIC (Staphylococcus aureus [9]): > 128 µg/mL | MIC (Staphylococcus aureus [10]): 64 µg/mL (≈ 152 µM) | MIC [11]: 64 µg/mL (≈ 152 µM)

COC(=O)c1c(/C=C/c2ccc(F)cc2F)cc(OC)c(CC=C(C)C)c1O
MIC (Staphylococcus aureus [1]): > 128 µg/mL | MIC (Escherichia coli): > 128 µg/mL | MIC (Staphylococcus aureus [2]): > 128 µg/mL | MIC (Staphylococcus aureus [3]): > 128 µg/mL | MIC (Pseudomonas aeruginosa): > 128 µg/mL | MIC (Staphylococcus aureus [4]): 128 µg/mL (≈ 330 µM) | MIC (Bacillus subtilis): 128 µg/mL (≈ 330 µM) | MIC (Proteus vulgaris): > 128 µg/mL | MIC (Staphylococcus aureus [5]): 64 µg/mL (≈ 165 µM) | MIC (Staphylococcus aureus [6]): 64 µg/mL (≈ 165 µM) | MIC (Staphylococcus aureus [7]): > 128 µg/mL | MIC (Staphylococcus aureus [8]): > 128 µg/mL | MIC (Staphylococcus aureus [9]): 128 µg/mL (≈ 330 µM) | MIC (Staphylococcus aureus [10]): 128 µg/mL (≈ 330 µM) | MIC [11]: 64 µg/mL (≈ 165 µM)

COc1cc(C)c(C(=O)O)c(O)c1CC=C(C)C
MIC (Staphylococcus aureus [1]): 64 µg/mL (≈ 256 µM) | MIC (Escherichia coli): > 128 µg/mL | MIC (Staphylococcus aureus [2]): 32 µg/mL (≈ 128 µM) | MIC (Staphylococcus aureus [3]): 32 µg/mL (≈ 128 µM) | MIC (Pseudomonas aeruginosa): > 128 µg/mL | MIC (Staphylococcus aureus [4]): 64 µg/mL (≈ 256 µM) | MIC (Bacillus subtilis): 64 µg/mL (≈ 256 µM) | MIC (Proteus vulgaris): > 128 µg/mL | MIC (Staphylococcus aureus [5]): 32 µg/mL (≈ 128 µM) | MIC (Staphylococcus aureus [6]): 32 µg/mL (≈ 128 µM) | MIC (Staphylococcus aureus [7]): 32 µg/mL (≈ 128 µM) | MIC (Staphylococcus aureus [8]): 32 µg/mL (≈ 128 µM) | MIC (Staphylococcus aureus [9]): 32 µg/mL (≈ 128 µM) | MIC (Staphylococcus aureus [10]): 32 µg/mL (≈ 128 µM) | MIC [11]: 64 µg/mL (≈ 256 µM)

COc1cc(/C=C/c2ccc(F)cc2)c(C(=O)O)c(O)c1CC=C(C)C
MIC (Staphylococcus aureus [1]): 1 µg/mL (≈ 2.81 µM) | MIC (Escherichia coli): > 128 µg/mL | MIC (Staphylococcus aureus [2]): 4 µg/mL (≈ 11.2 µM) | MIC (Staphylococcus aureus [3]): 8 µg/mL (≈ 22.4 µM) | MIC (Pseudomonas aeruginosa): > 64 µg/mL | MIC (Staphylococcus aureus [4]): 1 µg/mL (≈ 2.81 µM) | MIC (Bacillus subtilis): 1 µg/mL (≈ 2.81 µM) | MIC (Proteus vulgaris): > 64 µg/mL | MIC (Staphylococcus aureus [5]): 4 µg/mL (≈ 11.2 µM) | MIC (Staphylococcus aureus [6]): 1 µg/mL (≈ 2.81 µM) | MIC (Staphylococcus aureus [7]): 8 µg/mL (≈ 22.4 µM) | MIC (Staphylococcus aureus [8]): 8 µg/mL (≈ 22.4 µM) | MIC (Staphylococcus aureus [9]): 1 µg/mL (≈ 2.81 µM) | MIC (Staphylococcus aureus [10]): 2 µg/mL (≈ 5.61 µM) | MIC [11]: 4 µg/mL (≈ 11.2 µM)

COc1cc(/C=C/c2ccc(Cl)cc2)c(C(=O)O)c(O)c1CC=C(C)C
MIC (Staphylococcus aureus [1]): 1 µg/mL (≈ 2.68 µM) | MIC (Escherichia coli): 128 µg/mL (≈ 343 µM) | MIC (Staphylococcus aureus [2]): 2 µg/mL (≈ 5.36 µM) | MIC (Staphylococcus aureus [3]): 8 µg/mL (≈ 21.5 µM) | MIC (Pseudomonas aeruginosa): > 64 µg/mL | MIC (Staphylococcus aureus [4]): 2 µg/mL (≈ 5.36 µM) | MIC (Bacillus subtilis): 2 µg/mL (≈ 5.36 µM) | MIC (Proteus vulgaris): > 64 µg/mL | MIC (Staphylococcus aureus [5]): 4 µg/mL (≈ 10.7 µM) | MIC (Staphylococcus aureus [6]): 2 µg/mL (≈ 5.36 µM) | MIC (Staphylococcus aureus [7]): 4 µg/mL (≈ 10.7 µM) | MIC (Staphylococcus aureus [8]): 4 µg/mL (≈ 10.7 µM) | MIC (Staphylococcus aureus [9]): 0.5 µg/mL (≈ 1.34 µM) | MIC (Staphylococcus aureus [10]): 4 µg/mL (≈ 10.7 µM) | MIC [11]: 4 µg/mL (≈ 10.7 µM)

COc1ccc(/C=C/c2cc(OC)c(CC=C(C)C)c(O)c2C(=O)O)cc1
MIC (Staphylococcus aureus [1]): 16 µg/mL (≈ 43.4 µM) | MIC (Escherichia coli): > 128 µg/mL | MIC (Staphylococcus aureus [2]): 16 µg/mL (≈ 43.4 µM) | MIC (Staphylococcus aureus [3]): 32 µg/mL (≈ 86.9 µM) | MIC (Pseudomonas aeruginosa): > 64 µg/mL | MIC (Staphylococcus aureus [4]): 16 µg/mL (≈ 43.4 µM) | MIC (Bacillus subtilis): 16 µg/mL (≈ 43.4 µM) | MIC (Proteus vulgaris): > 64 µg/mL | MIC (Staphylococcus aureus [5]): 16 µg/mL (≈ 43.4 µM) | MIC (Staphylococcus aureus [6]): 16 µg/mL (≈ 43.4 µM) | MIC (Staphylococcus aureus [7]): 16 µg/mL (≈ 43.4 µM) | MIC (Staphylococcus aureus [8]): 16 µg/mL (≈ 43.4 µM) | MIC (Staphylococcus aureus [9]): 32 µg/mL (≈ 86.9 µM) | MIC (Staphylococcus aureus [10]): 8 µg/mL (≈ 21.7 µM) | MIC [11]: 32 µg/mL (≈ 86.9 µM)

COc1cc(/C=C/c2ccc(C)cc2)c(C(=O)O)c(O)c1CC=C(C)C
MIC (Staphylococcus aureus [1]): 32 µg/mL (≈ 90.8 µM) | MIC (Escherichia coli): > 128 µg/mL | MIC (Staphylococcus aureus [2]): 32 µg/mL (≈ 90.8 µM) | MIC (Staphylococcus aureus [3]): 16 µg/mL (≈ 45.4 µM) | MIC (Pseudomonas aeruginosa): > 64 µg/mL | MIC (Staphylococcus aureus [4]): 16 µg/mL (≈ 45.4 µM) | MIC (Bacillus subtilis): 16 µg/mL (≈ 45.4 µM) | MIC (Proteus vulgaris): > 64 µg/mL | MIC (Staphylococcus aureus [5]): 32 µg/mL (≈ 90.8 µM) | MIC (Staphylococcus aureus [6]): 32 µg/mL (≈ 90.8 µM) | MIC (Staphylococcus aureus [7]): 8 µg/mL (≈ 22.7 µM) | MIC (Staphylococcus aureus [8]): 32 µg/mL (≈ 90.8 µM) | MIC (Staphylococcus aureus [9]): 16 µg/mL (≈ 45.4 µM) | MIC (Staphylococcus aureus [10]): 16 µg/mL (≈ 45.4 µM) | MIC [11]: 32 µg/mL (≈ 90.8 µM)

COc1cc(/C=C/c2cc(OC)c(OC)c(OC)c2)c(C(=O)O)c(O)c1CC=C(C)C
MIC (Staphylococcus aureus [1]): 16 µg/mL (≈ 37.3 µM) | MIC (Escherichia coli): > 128 µg/mL | MIC (Staphylococcus aureus [2]): 16 µg/mL (≈ 37.3 µM) | MIC (Staphylococcus aureus [3]): 64 µg/mL (≈ 149 µM) | MIC (Pseudomonas aeruginosa): > 64 µg/mL | MIC (Staphylococcus aureus [4]): 32 µg/mL (≈ 74.7 µM) | MIC (Bacillus subtilis): 16 µg/mL (≈ 37.3 µM) | MIC (Proteus vulgaris): > 64 µg/mL | MIC (Staphylococcus aureus [5]): 16 µg/mL (≈ 37.3 µM) | MIC (Staphylococcus aureus [6]): 32 µg/mL (≈ 74.7 µM) | MIC (Staphylococcus aureus [7]): 16 µg/mL (≈ 37.3 µM) | MIC (Staphylococcus aureus [8]): 16 µg/mL (≈ 37.3 µM) | MIC (Staphylococcus aureus [9]): 64 µg/mL (≈ 149 µM) | MIC (Staphylococcus aureus [10]): 16 µg/mL (≈ 37.3 µM) | MIC [11]: 32 µg/mL (≈ 74.7 µM)

COc1cc(/C=C/c2cccc(C#N)c2)c(C(=O)O)c(O)c1CC=C(C)C
MIC (Staphylococcus aureus [1]): 2 µg/mL (≈ 5.5 µM) | MIC (Escherichia coli): > 128 µg/mL | MIC (Staphylococcus aureus [2]): 8 µg/mL (≈ 22 µM) | MIC (Staphylococcus aureus [3]): 4 µg/mL (≈ 11 µM) | MIC (Pseudomonas aeruginosa): > 64 µg/mL | MIC (Staphylococcus aureus [4]): 4 µg/mL (≈ 11 µM) | MIC (Bacillus subtilis): 16 µg/mL (≈ 44 µM) | MIC (Proteus vulgaris): > 64 µg/mL | MIC (Staphylococcus aureus [5]): 2 µg/mL (≈ 5.5 µM) | MIC (Staphylococcus aureus [6]): 0.5 µg/mL (≈ 1.38 µM) | MIC (Staphylococcus aureus [7]): 4 µg/mL (≈ 11 µM) | MIC (Staphylococcus aureus [8]): 2 µg/mL (≈ 5.5 µM) | MIC (Staphylococcus aureus [9]): 2 µg/mL (≈ 5.5 µM) | MIC (Staphylococcus aureus [10]): 1 µg/mL (≈ 2.75 µM) | MIC [11]: 2 µg/mL (≈ 5.5 µM)
